≈ marks a conversion by molar mass, not a printed value.
Assays:
Klebsiella pneumoniae = assay: Antimicrobial activity against Klebsiella pneumoniae NCTN9632 by CLSI method; format: functional
[1] = system: Staphylococcus epidermidis; assay: Antimicrobial activity against Staphylococcus epidermidis […] by CLSI method; format: functional
Serratia marcescens = assay: Antimicrobial activity against Serratia marcescens IFO12648 by CLSI method; format: functional
THP-1 [2] = assay: Immunomodulatory activity in human THP1 cells assessed as differentiation of monocyte to macrophage after 4 days by MTT assay; format: functional; details: THP-1, 96 h, read-out: ED50 (the source's name)
Escherichia coli = assay: Antimicrobial activity against Escherichia coli NIHJ JC-2 by CLSI method; format: functional
Micrococcus luteus [3] = assay: Antimicrobial activity against Micrococcus luteus ATCC 21212 by CLSI method; format: functional
Staphylococcus aureus [4] = assay: Antimicrobial activity against Staphylococcus aureus 8325 (pEP2104) by CLSI method; format: functional
[5] = system: Acinetobacter calcoaceticus; assay: Antimicrobial activity against Acinetobacter calcoaceticus IFO2552 by CLSI method; format: functional
THP-1 [6] = assay: Cytotoxicity against human THP1 cells using cell count reagent SF; format: cell-based
Staphylococcus aureus [7] = assay: Antimicrobial activity against Staphylococcus aureus FDA209P by CLSI method; format: functional
Klebsiella aerogenes = assay: Antimicrobial activity against Enterobacter aerogenes NCTC10006 by CLSI method; format: functional
Micrococcus luteus [8] = assay: Antimicrobial activity against Micrococcus luteus ATCC 9341 by CLSI method; format: functional
Staphylococcus aureus [9] = assay: Antimicrobial activity against Staphylococcus aureus Smith by CLSI method; format: functional

CC[C@@H](O)[C@@](C)(O)[C@@H]1OC(=O)[C@H](C)[C@@H](O[C@H]2C[C@@](C)(OC)[C@@H](O)[C@H](C)O2)[C@H](C)[C@@H](O[C@@H]2O[C@H](C)C[C@H](N(C)C)[C@H]2O)[C@@]2(C)C[C@@H](C)[C@H](O2)[C@@H]1C
MIC (Klebsiella pneumoniae): > 128 µg/mL | MIC [1]: > 128 µg/mL | MIC (Serratia marcescens): > 128 µg/mL | EC50 (THP-1 [2]): 17.1 µM | MIC (Escherichia coli): > 128 µg/mL | MIC (Micrococcus luteus [3]): > 128 µg/mL | MIC (Staphylococcus aureus [4]): > 128 µg/mL | MIC [5]: > 128 µg/mL | Activity (THP-1 [6]): 100 µM | MIC (Staphylococcus aureus [7]): > 128 µg/mL | MIC (Klebsiella aerogenes): > 128 µg/mL | MIC (Micrococcus luteus [8]): 128 µg/mL (≈ 178 µM) | MIC (Staphylococcus aureus [9]): > 128 µg/mL

CO[C@]1(C)C[C@H](O[C@H]2[C@H](C)[C@@H](O[C@@H]3O[C@H](C)C[C@H](N(C)C)[C@H]3O)[C@@]3(C)C[C@@H](C)[C@H](O3)[C@H](C)[C@H](C(C)=O)OC(=O)[C@@H]2C)O[C@@H](C)[C@@H]1O
EC50 (THP-1 [2]): 12.3 µM | Activity (THP-1 [6]): 100 µM

CO[C@]1(C)C[C@H](O[C@H]2[C@H](C)[C@@H](O[C@@H]3O[C@H](C)C[C@H](N(C)C)[C@H]3O)[C@@]3(C)C[C@@H](C)[C@H](O3)[C@H](C)[C@H](/C(C)=N/O)OC(=O)[C@@H]2C)O[C@@H](C)[C@@H]1O
EC50 (THP-1 [2]): 12.3 µM | Activity (THP-1 [6]): > 100 µM

CC[C@@H]1O[C@@]1(C)[C@@H]1OC(=O)[C@H](C)[C@@H](O[C@H]2C[C@@](C)(OC)[C@@H](O)[C@H](C)O2)[C@H](C)[C@@H](O[C@@H]2O[C@H](C)C[C@H](N(C)C)[C@H]2O)[C@@]2(C)C[C@@H](C)[C@H](O2)[C@@H]1C
EC50 (THP-1 [2]): 10.2 µM | Activity (THP-1 [6]): 100 µM

CC[C@@H](OC(C)=O)[C@@](C)(O)[C@@H]1OC(=O)[C@H](C)[C@@H](O[C@H]2C[C@@](C)(OC)[C@@H](O)[C@H](C)O2)[C@H](C)[C@@H](O[C@@H]2O[C@H](C)C[C@H](N(C)C)[C@H]2O)[C@@]2(C)C[C@@H](C)[C@H](O2)[C@@H]1C
EC50 (THP-1 [2]): 7.7 µM | Activity (THP-1 [6]): 100 µM

CC[C@@H](O)[C@@](C)(O)[C@@H]1OC(=O)[C@H](C)[C@@H](O[C@H]2C[C@@](C)(OC)[C@@H](O)[C@H](C)O2)[C@H](C)[C@@H](O[C@@H]2O[C@H](C)C[C@H](N(C)C)[C@H]2OC(C)=O)[C@@]2(C)C[C@@H](C)[C@H](O2)[C@@H]1C
EC50 (THP-1 [2]): 16.1 µM | Activity (THP-1 [6]): 100 µM

CC[C@@H](O)[C@@](C)(O)[C@@H]1OC(=O)[C@H](C)[C@@H](O)[C@H](C)[C@@H](O[C@@H]2O[C@H](C)C[C@H](N(C)C)[C@H]2OC(C)=O)[C@@]2(C)C[C@@H](C)[C@H](O2)[C@@H]1C
EC50 (THP-1 [2]): > 100 µM | Activity (THP-1 [6]): > 100 µM

CC[C@H]1OC(=O)O[C@@]1(C)[C@@H]1OC(=O)[C@H](C)[C@@H](O)[C@H](C)[C@@H](O[C@@H]2O[C@H](C)C[C@H](N(C)C)[C@H]2OC(C)=O)[C@@]2(C)C[C@@H](C)[C@H](O2)[C@@H]1C
EC50 (THP-1 [2]): 55.7 µM | Activity (THP-1 [6]): > 100 µM

CC[C@H]1OC(=O)O[C@@]1(C)[C@@H]1OC(=O)[C@H](C)C(=O)[C@H](C)[C@@H](O[C@@H]2O[C@H](C)C[C@H](N(C)C)[C@H]2OC(C)=O)[C@@]2(C)C[C@@H](C)[C@H](O2)[C@@H]1C
EC50 (THP-1 [2]): 27.9 µM | Activity (THP-1 [6]): > 100 µM

CC[C@H]1OC(=O)O[C@@]1(C)[C@@H]1OC(=O)[C@H](C)C(=O)[C@H](C)[C@@H](O[C@@H]2O[C@H](C)C[C@H](N(C)C)[C@H]2O)[C@@]2(C)C[C@@H](C)[C@H](O2)[C@@H]1C
EC50 (THP-1 [2]): 26.3 µM | Activity (THP-1 [6]): > 100 µM

CC[C@H]1OC(=O)[C@H](C)[C@@H](O[C@H]2C[C@@](C)(OC)[C@@H](O)[C@H](C)O2)[C@H](C)[C@@H](O[C@@H]2O[C@H](C)C[C@H](N(C)C)[C@H]2O)[C@](C)(O)C[C@@H](C)C(=O)[C@H](C)[C@@H](O)[C@]1(C)O [ERYTHROMYCIN]
MIC (Klebsiella pneumoniae): 32 µg/mL (≈ 43.6 µM) | MIC [1]: ≤ 0.5 µg/mL | MIC (Serratia marcescens): 128 µg/mL (≈ 174 µM) | MIC (Escherichia coli): 64 µg/mL (≈ 87.2 µM) | MIC (Micrococcus luteus [3]): 1 µg/mL (≈ 1.36 µM) | MIC (Staphylococcus aureus [4]): 64 µg/mL (≈ 87.2 µM) | MIC [5]: 4 µg/mL (≈ 5.45 µM) | MIC (Staphylococcus aureus [7]): ≤ 0.5 µg/mL | MIC (Klebsiella aerogenes): 128 µg/mL (≈ 174 µM) | MIC (Micrococcus luteus [8]): ≤ 0.5 µg/mL | MIC (Staphylococcus aureus [9]): ≤ 0.5 µg/mL

Reference: ChEMBL document CHEMBL1777670, “Novel 12-membered non-antibiotic macrolides from erythromycin A; EM900 series as novel leads for anti-inflammatory and/or immunomodulatory agents” (Bioorg Med Chem Lett, 2011)
